Reference: patent US20240197694A1, “MODIFIED PROTEINS AND PROTEIN BINDERS” (Cullgen (Shanghai), Inc., priority 2021, published 2024)
pKd: −log10 of the molar value.

target: T1, DCAF1 (1058-1396) (Homo sapiens, UniProt Q9Y4B6); experiment: Surface plasmon resonance (SPR) binding assay, compound binding to DCAF1; conditions: immobilized DCAF1 (1058-1396), steady state affinity model, 25° C.
T1 construct: a fragment of a DCAF1 protein that includes amino acid residues A1058 to E1396; His6 (N, cleaved yes); made in house; host or cells: Sf9 insect cells (Bac-to-Bac baculovirus, pFastBacHT vector)
T1 sequence (Q9Y4B6 1058-1396): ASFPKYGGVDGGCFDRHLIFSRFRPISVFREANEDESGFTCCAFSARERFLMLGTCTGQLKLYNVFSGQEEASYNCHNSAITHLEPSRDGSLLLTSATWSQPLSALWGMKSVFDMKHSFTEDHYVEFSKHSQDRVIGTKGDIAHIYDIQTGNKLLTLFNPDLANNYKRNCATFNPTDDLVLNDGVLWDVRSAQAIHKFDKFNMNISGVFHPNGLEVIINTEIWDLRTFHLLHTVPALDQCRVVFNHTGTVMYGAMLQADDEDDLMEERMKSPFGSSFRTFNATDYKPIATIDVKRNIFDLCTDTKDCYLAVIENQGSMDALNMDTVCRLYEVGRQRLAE
Procedure: Binding affinities of specific exemplary compounds to DCAF1 (1058-1396), which is a fragment of a DCAF1 protein that includes amino acid residues A1058 to E1396 were determined by a surface plasmon resonance (SPR) assay. Briefly, purified DCAF1 (1058-1396) proteins were immobilized at a density of 9,000-11,000 resonance units (RUs) on a CMS sensor chip. Sensorgrams were recorded at different concentrations of compounds in multi-cycle kinetic format. Data were analyzed using a steady state affinity model through Biacore Evaluation Software to provide equivalent dissociation constants (Kd).
Binding affinities of compounds to DCAF1 were determined by a surface plasmon resonance (SPR) assay. Purified DCAF1 (1058-1396) proteins were immobilized on a CMS sensor chip, and a dose range of compound solutions were injected in multi-cycle kinetic format. Data were analyzed using a steady state model to provide equivalent dissociation constants (Kd).
Protein Expression and Purification: Human DCAF1 (1058-1396) (UniPro: Q9Y4B6) coding sequences were cloned into pFastBacHT vector and were expressed in Sf9 cells using Bac-to-Bac baculovirus expression system (Thermo Fisher Scientific). The expression construct for DCAF1 (1058-1396) included a N-terminal His6-tag to facilitate the purification. DCAF1 (1058-1396) proteins were obtained from supernatants of cell lysates and purified through sequential application of Ni affinity chromatography (Ni-NTA column, Bio-Rad), Tag removal using TEV protease, and size-exclusion chromatography (Superdex 200 column, GE Healthcare).
Surface plasmon resonance (SPR) binding assays: SPR studies were performed on a Biacore X100 plus or T200 instrument (GE Healthcare). Immobilization of purified DCAF1 (1058-1396) was carried out at 25° C. using a CMS sensor chip. The surface was pre-equilibrated in HBS-EP running buffer (10 mM HEPES, pH 7.4, 150 mM NaCl, 3 mM EDTA, 0.05% P20), before being activated with EDC/NHS. DCAF1 (1058-1396) was immobilized through amino groups to a density of 9,000-12,000 resonance units (RUs) on flow cell channel 2 (FC2), whereas flow cell channel 1 (FC1) was used as reference. Both DCAF1 immobilized and reference surfaces were deactivated with 1 M ethanolamine.
Interaction experiments were performed at 25° C. The compounds were prepared and serially diluted in HBS-EP running buffer containing final 2% DMSO (6-point two-fold serial dilution, 100 μM -3.125 μM final concentration of compounds). Compound Solutions were injected individually in multi-cycle kinetic format without regeneration (flow rate 30 μL/min, association time 60 s, dissociation time 60 s). Sensorgrams from reference surfaces and blank injections were subtracted from the raw data (double-referenced) and the data was solvent-corrected prior to analysis. Data were analyzed using a steady state affinity model through Biacore Evaluation Software to provide equivalent dissociation constants (Kd).

CC(C)(C)c1ccc2[nH]c3c(c2c1)CN(CCc1cnn[nH]1)CC3 [CPD-011, 2-(2-(1H-1,2,3-triazol-5-yl)ethyl)-8-(tert-butyl)-2,3,4,5-tetrahydro-1H-pyrido[4,3-b]indole] and Fc1ccc2[nH]c3c(c2c1)CN(CCc1cnn[nH]1)CC3 [CPD-012, 2-(2-(1H-1,2,3-triazol-5-yl)ethyl)-8-fluoro-2,3,4,5-tetrahydro-1H-pyrido[4,3-b]indole] cannot be ordered by pKd: 4.15 to 4.40 for the first, no less than 4.40 for the second.

Oc1ccc(F)c(CNCc2cnc[nH]2)c1 [CPD-102, 3-((((1H-imidazol-5-yl)methyl)amino)methyl)-4-fluorophenol] and OCCOc1cccc(CNCc2cnc[nH]2)c1 [CPD-103, 2-(3-((((1H-imidazol-5-yl)methyl)amino)methyl)phenoxy)ethan-1-ol] cannot be ordered by pKd: less than 4.00 for the first, less than 4.00 for the second.

First: CN1CCc2c(c3ccccc3n2-c2ccccc2)C1 [CPD-057, 2-methyl-5-phenyl-2,3,4,5-tetrahydro-1H-pyrido[4,3-b]indole]
Second: CN1CCc2c(c3ccccc3n2CCC(N)=O)C1 [CPD-060, 3-(2-methyl-1,2,3,4-tetrahydro-5H-pyrido[4,3-b]indol-5-yl)propanamide]
The pKd of the first is lower: less than 4.00 for the first, 4.00 to 4.15 for the second.

NCCOCCOCCOCCn1cccc1CNCc1ccncc1 [CPD-006, 2-(2-(2-(2-(2-(((pyridin-4-ylmethyl)amino)methyl)-1H-pyrrol-1-yl)ethoxy)ethoxy)ethoxy)ethan-1-amine] and NCCCCCCn1cccc1CNCc1ccncc1 [CPD-005, 6-(2-(((pyridin-4-ylmethyl)amino)methyl)-1H-pyrrol-1-yl)hexan-1-amine] fall in the same range of pKd: 4.15 to 4.40 for the first, 4.15 to 4.40 for the second.

First: Cn1cccc1CNCc1ccncc1 [CPD-001, 1-(1-methyl-1H-pyrrol-2-yl)-N-(pyridin-4-ylmethyl)methanamine]
Second: Cn1cccc1CNCc1cccnc1 [CPD-002, 1-(1-methyl-1H-pyrrol-2-yl)-N-(pyridin-3-ylmethyl)methanamine]
The pKd of the first is higher: 4.15 to 4.40 for the first, less than 4.00 for the second. The first binds more tightly here.

CN1Cc2cc(NCCCCCCN)ccc2CC1CNc1ncccc1F (centres unmarked) [CPD-018, N1-(3-(((3-fluoropyridin-2-yl)amino)methyl)-2-methyl-1,2,3,4-tetrahydroisoquinolin-7-yl)hexane-1,6-diamine] and CN1Cc2cc(NCCOCCOCCOCCN)ccc2CC1CNc1ncccc1F (centres unmarked) [CPD-017, N-(2-(2-(2-(2-aminoethoxy)ethoxy)ethoxy)ethyl)-3-(((3-fluoropyridin-2-yl)amino)methyl)-2-methyl-1,2,3,4-tetrahydroisoquinolin-7-amine] fall in the same range of pKd: 4.15 to 4.40 for the first, 4.15 to 4.40 for the second.

c1ccc2c3c([nH]c2c1)CCN(CCc1ccncc1)C3 [CPD-045, 2-(2-(pyridin-4-yl)ethyl)-2,3,4,5-tetrahydro-1H-pyrido[4,3-b]indole] and Nc1nc(CCN2CCc3[nH]c4ccc(F)cc4c3C2)cs1 [CPD-053, 4-(2-(8-fluoro-1,3,4,5-tetrahydro-2H-pyrido[4,3-b]indol-2-yl)ethyl)thiazol-2-amine] fall in the same range of pKd: 4.15 to 4.40 for the first, 4.15 to 4.40 for the second.

Compared with Cc1ccc2c(c1)C1CN(C)CCC1N2C(=O)/C=C/c1nccs1 (centres unmarked) [CPD-081, (E)-1-(2,8-dimethyl-1,2,3,4,4a,9b-hexahydro-5H-pyrido [4,3-b]indol-5-yl)-3-(thiazol-2-yl)prop-2-en-1-one], Cc1ccc2c(c1)C1CN(C)CCC1N2C(=O)/C=C/c1ccc(F)cc1 (centres unmarked) [CPD-084, (E)-1-(2,8-dimethyl-1,2,3,4,4a,9b-hexahydro-5H-pyrido [4,3-b]indol-5-yl)-3-(4-fluorophenyl)prop-2-en-1-one] is higher in pKd: less than 4.00 for the first, 4.15 to 4.40 for the second.

COc1cncc(CNCc2cnc[nH]2)c1 [CPD-027, N-((1H-imidazol-5-yl)methyl)-1-(5-methoxypyridin-3-yl) methanamine] and CN1Cc2ccccc2CC1CNC(=O)c1cncc(O)n1 (centres unmarked) [CPD-015, 6-hydroxy-N-((2-methyl-1,2,3,4-tetrahydroisoquinolin-3-yl)methyl)pyrazine-2-carboxamide] cannot be ordered by pKd: less than 4.00 for the first, less than 4.00 for the second.

Cc1cccc2c1[C@@H]1CN(C)CC[C@H]1N2C (racemic) [CPD-040, trans-2,5,9-trimethyl-2,3,4,4a,5,9b-hexahydro-1H-pyrido[4,3-b]indole] and Cc1ccc2c(c1)[C@H]1CN(C)CC[C@H]1N2C (racemic) [CPD-036, cis-2,5,8-trimethyl-2,3,4,4a,5,9b-hexahydro-1H-pyrido [4,3-b]indole] cannot be ordered by pKd: less than 4.00 for the first, less than 4.00 for the second.

NCCOCCOCCOCCn1c2c(c3cc(F)ccc31)CN(CCc1cnn[nH]1)CC2 [CPD-016, 2-(2-(2-(2-(2-(2-(1H-1,2,3-triazol-5-yl)ethyl)-8-fluoro-1,2,3,4-tetrahydro-5H-pyrido[4,3-b]indol-5-yl)ethoxy)ethoxy)ethoxy)ethan-1-amine] and CC(C)c1ccc2[nH]c3c(c2c1)CN(CCc1cnn[nH]1)CC3 [CPD-009, 2-(2-(1H-1,2,3-triazol-5-yl)ethyl)-8-isopropyl-2,3,4,5-tetrahydro-1H-pyrido[4,3-b]indole] fall in the same range of pKd: 4.15 to 4.40 for the first, 4.15 to 4.40 for the second.

Cc1ccc2c(c1)c1c(n2C)CC[N+](C)(C)C1 [CPD-020, 2,2,5,8-tetramethyl-2,3,4,5-tetrahydro-1H-2λ^4-pyrido[4,3-b]indol-3-ylium] and CN1CCc2[nH]c3ccc(Cl)cc3c2C1 [CPD-046, 8-chloro-2-methyl-2,3,4,5-tetrahydro-1H-pyrido[4,3-b]indole] cannot be ordered by pKd: less than 4.00 for the first, less than 4.00 for the second.

Cc1ccc2c(c1)C1CN(C)CCC1N2c1nc(S(=O)(=O)c2ccccc2)c(Cl)s1 (centres unmarked) [CPD-061, 5-chloro-2-(2,8-dimethyl-1,2,3,4,4a,9b-hexahydro-5H-pyrido [4,3-b]indol-5-yl)-4-(phenylsulfonyl)thiazole] and Cc1ccc(S(=O)(=O)c2nc(N3c4ccc(C)cc4C4CN(C)CCC43)sc2Cl)cc1 (centres unmarked) [CPD-062, 5-chloro-2-(2,8-dimethyl-1,2,3,4,4a,9b-hexahydro-5H-pyrido [4,3-b]indol-5-yl)-4-tosylthiazole] cannot be ordered by pKd: less than 4.00 for the first, less than 4.00 for the second.

NCCCCCCn1cccc1C(=O)NCc1ccncc1 [CPD-004, 1-(6-aminohexyl)-N-(pyridin-4-ylmethyl)-1H-pyrrole-2-carboxamide] and O=C(NCCn1ncc2ccccc2c1=O)C1Cc2ccccc2CN1 (centres unmarked) [CPD-098, N-(2-(1-oxophthalazin-2(1H)-yl)ethyl)-1,2,3,4-tetrahydroisoquinoline-3-carboxamide] fall in the same range of pKd: 4.15 to 4.40 for the first, 4.15 to 4.40 for the second.

Compared with CNC(=O)NC(=O)CCN1CCc2[nH]c3ccc(Cl)cc3c2C1 [CPD-050, 3-(8-chloro-1,3,4,5-tetrahydro-2H-pyrido[4,3-b]indol-2-yl)-N-(methylcarbamoyl)propanamide], Cc1ccc(Br)c2[nH]c3c(c12)CN(C)CC3 [CPD-038, 6-bromo-2,9-dimethyl-2,3,4,5-tetrahydro-1H-pyrido[4,3-b]indole] is lower in pKd: 4.00 to 4.15 for the first, less than 4.00 for the second.

CN1Cc2ccccc2CC1CNc1ncccc1F (centres unmarked) [CPD-007, 3-fluoro-N-((2-methyl-1,2,3,4-tetrahydroisoquinolin-3-yl)methyl)pyridin-2-amine] and Cc1ccc2c(c1)C1CN(C)CCC1N2C(=O)c1cc(-n2cccc2)ccn1 (centres unmarked) [CPD-068, (4-(1H-pyrrol-1-yl)pyridin-2-yl)(2,8-dimethyl-1,2,3,4,4a,9b-hexahydro-5H-pyrido[4,3-b]indol-5-yl)methanone] cannot be ordered by pKd: less than 4.00 for the first, less than 4.00 for the second.

Cc1ccc2c(c1)C1CN(C)CCC1N2C(=O)CCc1cccs1 (centres unmarked) [CPD-082, 1-(2,8-dimethyl-1,2,3,4,4a,9b-hexahydro-5H-pyrido[4,3-b]indol-5-yl)-3-(thiophen-2-yl)propan-1-one] and Cc1ccc2c(c1)C1CN(C)CCC1N2C(=O)C[C@@H](n1cccn1)C(F)(F)F (stereo partly drawn) [CPD-080, (R)-1-(2,8-dimethyl-1,2,3,4,4a,9b-hexahydro-5H-pyrido [4,3-b]indol-5-yl)-4,4,4-trifluoro-3-(1H-pyrazol-1-yl)butan-1-one] cannot be ordered by pKd: less than 4.00 for the first, less than 4.00 for the second.

In the case of Cc1ccc2c(c1)C1CN(C)CCC1N2C(=O)c1ccnc(OCC(F)F)c1 (centres unmarked) [CPD-069, (2-(2,2-difluoroethoxy)pyridin-4-yl)(2,8-dimethyl-1,2,3,4,4a,9b-hexahydro-5H-pyrido[4,3-b]indol-5-yl)methanone], the pKd was less than 4.00.
